Data as given in patent publication EP4620954A1, “CDK2 INHIBITOR, PREPARATION METHOD THEREFOR, AND USE THEREOF” (Shandong Luye Pharmaceutical Co., Ltd., priority 2022, dated 2024).
Like-named read-outs stand apart in the source and are kept apart here.

Experiments:
CDK2/Cyclin E1 = biological target: T1, CDK2/Cyclin E1 (Homo sapiens, UniProt P24941); assay: CDK2 kinase antagonistic activity assay (TR-FRET); assay type: biochemical
T1 construct: purchased Invitrogen PV6296
Method: (§1) Compounds were dissolved in DMSO and serially diluted 3-fold to generate 11 concentrations. 100 nL of each compound was added to 384-well plates, followed by the addition of 5 µL of 2× CDK2/Cyclin E1 or CDK1/Cyclin B enzyme mixed solution. 5 µL of buffer (50 mM Hepes (pH 7.5), 10 mM MgCl2, 1 mM EDTA, 0.01% Brij-35, 2 mM DTT (prepared freshly)) was added to the complete inhibition control wells. The plates were centrifuged at 1000 rpm for 30 s and incubated at 23 °C for 15 min. Then, 5 µL of 2× MLight-MBP peptide (containing 10 µM ATP) was added to each well of each assay plate. The plates were centrifuged again at 1000 rpm for 30 s and incubated at 23 °C for 90 min.
After the incubation was completed, the reaction was stopped with a detection buffer containing 15 mM EDTA and 2 nM Eu-anti-P-MBP antibody. After centrifugation at 1000 rpm for about 1 min, the plates were incubated at 23 °C for 60 min and read on Perkin Elmer Envision. The TR-FRET ratio (value at 665 nm/value at 615 nm) was automatically calculated by Envision.
(§2) The IC50 values of the compounds were calculated using GraphPad Prism nonlinear fitting equation. Table 1. Kinase activity assay

CDK1/Cyclin B = biological target: T2, CDK1/Cyclin B (Homo sapiens, UniProt P06493); assay: CDK1 kinase activity assay (TR-FRET); assay type: biochemical
T2 construct: purchased Invitrogen PR4768C
Method: as §1
After the incubation was completed, the reaction was stopped with a detection buffer containing 15 mM EDTA and 2 nM Eu-anti-P-MBP antibody. After centrifugation at 1000 rpm for about 1 min, the plates were incubated at 23 °C for 60 min and read on Perkin Elmer Envision.
as §2

[1] = Permeability and transporter substrate evaluation, Caco-2 monolayer; assay type: in vitro ADME; conditions: human, Caco-2, 2.00 µM, 120 min
Method: Cell: Caco-2 cells Instrument: water purification equipment, ELGA LabWate; biosafety cabinet, Nuaire; thermostatic CO2 incubator, Thermo; microplate reader, PerkinElmer; LC-MS/MS, AB SCIEX. Method: The purpose of this study was to determine the two-way permeability of the compounds and evaluate whether they are effluxed and transported by P-glycoprotein (P-gp) using a Caco-2 monolayer cell model. In the experiment, Caco-2 cells were seeded into a 96-well cell plate and cultured for 24 consecutive days for the transport experiment. The compounds were administered bidirectionally at a concentration of 2.00 µM, with or without verapamil. After 120 min of incubation, the samples at the apical end A and the basal end B were collected. The content of the test samples in each sample was measured using the liquid chromatography-tandem mass spectrometry (LC-MS/MS) method. The apparent permeability coefficient and the efflux rate were calculated. Two experimental systems were used successively in this part, with the reference compound (PF-07104091) included. Table 4. Permeability test results

HCT116 cells = assay: Antagonistic effect assay against HCT116 cell proliferation (CellTitle-Glo); assay type: cell-based; conditions: Homo sapiens, HCT-116, 72 h treatment, 0.01-10.00 µM, read-out: Antiproliferative IC50
Method: Frozen HCT116 cells were rapidly transferred from liquid nitrogen to a 37 °C water bath and rapidly shaken for thawing. The cell suspension was transferred to a 15 mL centrifuge tube and centrifuged at 1500 rpm for 5 min, and the supernatant was discarded. The cell pellet was resuspended in RPMI-1640 complete medium (containing 10% fetal bovine serum and 1% penicillin/streptomycin) and transferred to a cell culture dish containing 10 mL of medium. The cells were cultured in an incubator at 37 °C/5% CO2. The cells were passaged after adhesion to the wall.
HCT116 cells in the logarithmic growth phase and in good condition were taken, digested with a trypsin solution, resuspended in a certain amount of RPMI-1640 complete medium to form a single-cell suspension, counted on a cell counting plate, and seeded into a 96-well white plate at a density of 800 cells/well. The plate was left to stand for 5 min and then incubated in an incubator at 37 °C/5% CO2 overnight. The next day, the cells were treated with the compound at different concentrations, and the control group was treated with DMSO at the corresponding concentration. The compound, dissolved in DMSO, was diluted in RPMI-1640 complete medium at a ratio of 1:1000 to obtain final concentrations of 10.00 µM, 3.33 µM, 1.11 µM, 0.37 µM, 0.12 µM, 0.04 µM, and 0.01 µM. Each group was set up with 3 replicate wells, and 100 µL of the treatment solution was added to each well. The plate was incubated in an incubator at 37 °C/5% CO2 for 72 h.
After 72 h of treatment, the CellTitle-Glo assay was performed. 100 µL of CellTitle-Glo solution was added to each well of the control and treatment groups. The plate was mixed on an oscillator for 2 min to induce cell lysis. The 96-well plate was incubated at room temperature for 10 min to stabilize the luminescence signal value. The luminescence signal was measured using a microplate reader. The DMSO-treated cell group was used as the control group, and 50% inhibitory concentration (IC50) was calculated according to the median effect equation as follows: [formula]
The IC50 values of the compounds were calculated using GraphPad Prism nonlinear fitting equation. Table 2. Results for the inhibitory effect of the compounds of the present disclosure on HCT116 cell proliferation

[2] = In-vitro liver microsomal stability, human; assay type: in vitro ADME; conditions: human liver microsomes 0.5 mg/mL, 1 µM, NADPH 1 mM, 37 °C
Method: (§3) Method: The metabolic stability of test substances was evaluated by using human, dog, and SD rat liver microsomes. The test substances were incubated with liver microsomes from different species and NADPH in a water bath at 37 °C. In the incubation system, the final concentration of the test or control sample was 1 µM, the final concentration of liver microsomes was 0.5 mg/mL, the final concentration of NADPH was 1 mM, and the final concentration of MgCl2 was 3 mM. At designated time points (5 min, 10 min, 20 min, 30 min, and 60 min), the reaction was stopped by adding a cold acetonitrile solution containing tolbutamide (at a concentration of 200 ng/mL) as an internal standard. For the 0-min sample, the stop solution was added before the addition of the NADPH working solution. Testosterone and dextromethorphan were used as positive control samples in the same conditions to assess the stability and reliability of the system. After sample pretreatment, semiquantitative analysis was performed using the LC-MS/MS method. The retention times of the analytes and internal standard, the acquisition of chromatograms and the integration of chromatograms were processed using software Analyst (AB Sciex, Framingham, Massachusetts, USA). The remaining percentage of the test samples after 60 min of incubation was calculated, and the test results are shown in Table 3. Table 3. Test data for the compounds of the present disclosure in human, dog, and rat liver microsomes

[3] = In-vitro liver microsomal stability, rat; assay type: in vitro ADME; conditions: SD rat liver microsomes 0.5 mg/mL, 1 µM, NADPH 1 mM, 37 °C
Method: as §3

[4] = In-vitro liver microsomal stability, dog; assay type: in vitro ADME; conditions: dog liver microsomes 0.5 mg/mL, 1 µM, NADPH 1 mM, 37 °C
Method: as §3

[5] = TR-FRET, peptide mix containing 10 µM ATP, 90 min at 23 °C, read-out: CDK2/Cyclin E1 IC50
[6] = TR-FRET, peptide mix containing 10 µM ATP, 90 min at 23 °C, read-out: CDK1/Cyclin B1 IC50
[7] = Caco-2, Table 4 experimental system
[8] = Caco-2, Table 5 experimental system

T2 sequence (P06493 whole entry): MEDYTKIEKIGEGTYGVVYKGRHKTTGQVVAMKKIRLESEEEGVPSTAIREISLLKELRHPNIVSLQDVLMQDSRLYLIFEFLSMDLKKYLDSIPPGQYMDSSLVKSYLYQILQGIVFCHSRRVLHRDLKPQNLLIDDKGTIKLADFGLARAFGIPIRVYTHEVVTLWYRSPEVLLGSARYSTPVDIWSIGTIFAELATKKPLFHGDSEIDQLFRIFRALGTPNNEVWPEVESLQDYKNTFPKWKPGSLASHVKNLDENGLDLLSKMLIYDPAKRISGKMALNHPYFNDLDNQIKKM
T2 sequence (P14635 whole entry partner): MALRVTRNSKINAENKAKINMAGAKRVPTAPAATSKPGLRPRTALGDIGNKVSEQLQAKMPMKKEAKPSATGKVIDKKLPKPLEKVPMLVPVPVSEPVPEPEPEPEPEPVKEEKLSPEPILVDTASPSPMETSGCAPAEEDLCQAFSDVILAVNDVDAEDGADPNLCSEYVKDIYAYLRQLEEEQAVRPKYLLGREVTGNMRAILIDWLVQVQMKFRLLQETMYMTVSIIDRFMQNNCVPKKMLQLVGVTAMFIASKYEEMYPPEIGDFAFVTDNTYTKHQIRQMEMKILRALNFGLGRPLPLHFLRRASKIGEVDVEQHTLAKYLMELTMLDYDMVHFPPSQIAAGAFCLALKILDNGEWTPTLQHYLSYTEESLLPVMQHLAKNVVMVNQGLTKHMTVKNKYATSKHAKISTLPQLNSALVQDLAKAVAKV

| IC50 (CDK2/Cyclin E1; [5]) [nM] | IC50 (CDK1/Cyclin B; [6]) [nM] | Structure (SMILES) | IC50 (HCT116 cells) [nM] | further results |
| --- | --- | --- | --- | --- |
|  | 3110 | CC(C)NC(=O)O[C@@H]1CC[C@H](c2cc(NC3CCN(S(C)(=O)=O)CC3)n[nH]2)C1 [Compound 8] | > 10000 |  |
| 5.53 | 1020 | CC(C)NC(=O)O[C@@H]1CC[C@H](c2cc(Nc3ccc(CN4CCNCC4)cc3)n[nH]2)C1 [Compound 136] | 8430 |  |
|  | 845 | COCc1cc(C(=O)Nc2cc([C@H]3CC[C@@H](OC(=O)NC(C)(C)C#N)C3)[nH]n2)n(C)n1 [Compound 5] | > 10000 |  |
| 3.74 | 976 | CCN1CCN(Cc2ccc(Nc3cc([C@H]4CC[C@@H](OC(=O)NC(C)C)C4)[nH]n3)cc2)CC1 [Compound 137] | 1510 |  |
| 0.61 | 28.5 | CCS(=O)(=O)Cc1cc(C(=O)Nc2cc([C@H]3CC[C@@H](OC(=O)NC(C)C)C3)[nH]n2)n(C)n1 [Compound 12] | 1860 |  |
| > 1000 |  | COCc1cc(C(=O)Nc2[nH]nc3c2C[C@@H](OC(=O)NC(C)C)CC3)n(C)n1 [Compound 41] |  |  |
| 3.09 | 11.2 | C=C(C)c1ccncc1O[C@@H]1CC[C@H](c2cc(NC(=O)Cc3cccc(P(C)(C)=O)c3)n[nH]2)C1 [Compound 25] |  |  |
| > 1000 |  | COCc1cc(C(=O)Nc2cnc([C@H]3CC[C@@H](OC(=O)NC(C)C)C3)s2)n(C)n1 [Compound 36] |  |  |
| 8.71 |  | COCc1cc(C(=O)Nc2cc([C@H]3CC[C@@H](OC(=O)N4CC5(CCN(C)CC5)C4)C3)[nH]n2)n(C)n1 [Compound 10] | 7110 | Remaining amount% at 60 min Human [2]: 103%; Remaining amount% at 60 min Dog [4]: 95%; Remaining amount% at 60 min Rat [3]: 92% |

The next lines start with the compound.

| Structure (SMILES) | IC50 (CDK2/Cyclin E1; [5]) [nM] | IC50 (CDK1/Cyclin B; [6]) [nM] | IC50 (HCT116 cells) [nM] | further results |
| --- | --- | --- | --- | --- |
| C=C(C)c1ccncc1O[C@@H]1CO[C@H](c2cc(NC(=O)Cc3cccc(P(C)(C)=O)c3)n[nH]2)C1 [Compound 31] | 23.6 | 496 |  |  |
| COCc1cc(C(=O)Nc2cc(C3CCC(OC(=O)NC(C)C)C3)[nH]n2)n(C)n1 (stereo not shown) [PF-07104091, reference compound] |  |  |  | Papp A→B at 2 h, 2 µM [1, 7]: 0.106 ×10⁻⁶ cm/s; Papp B→A at 2 h, 2 µM [1, 7]: 25.5 ×10⁻⁶ cm/s; efflux ratio at 2 h, 2 µM [1, 7]: 241; Papp A→B at 2 h, 2 µM [1, 8]: 4.3 ×10⁻⁶ cm/s; Papp B→A at 2 h, 2 µM [1, 8]: 37 ×10⁻⁶ cm/s; efflux ratio at 2 h, 2 µM [1, 8]: 8.57 |
| CC(C)NC(=O)O[C@@H]1CC[C@H](c2cc(Nc3ccc(CN4CCN(C)CC4)c(F)c3)n[nH]2)C1 [Compound 134] | 2.14 |  | 1130 | IC50 (CDK1/Cyclin B): 664 nM; Papp A→B at 2 h, 2 µM [1, 8]: 7.08 ×10⁻⁶ cm/s; Papp B→A at 2 h, 2 µM [1, 8]: 23.4 ×10⁻⁶ cm/s; efflux ratio at 2 h, 2 µM [1, 8]: 3.3 |
| CC(C)NC(=O)O[C@@H]1CC[C@H](c2cc(Nc3ccc(C4CCN(C)CC4)cn3)n[nH]2)C1 [Compound 51] | 6.9 |  | 3530 | IC50 (CDK1/Cyclin B): 154 nM |
| CC(C)NC(=O)O[C@@H]1CC[C@H](c2cc(Nc3ccc(N4CCN(CC(F)F)CC4)cc3)n[nH]2)C1 [Compound 127] | 12.5 |  | 9800 |  |
| CC1(C)CCN1C(=O)O[C@@H]1CC[C@H](c2cc(NC(=O)Cc3ccc(N4CCCC4=O)cc3)n[nH]2)C1 [Compound 24] | 2.58 | 589 |  | Remaining amount% at 60 min Human [2]: 15.4%; Remaining amount% at 60 min Rat [3]: 22.8% |
| Cn1nc(CS(C)(=O)=O)cc1C(=O)Nc1cc([C@H]2CC[C@@H](OC(=O)N3CCC3(C)C)C2)[nH]n1 [Compound 16] | 0.16 |  | 847 | IC50 (CDK1/Cyclin B): 3.07 nM |
| C=C(C)c1ccncc1O[C@@H]1CC[C@H](c2cc(NC(=O)Cc3ccc(N4CCCC4=O)cc3)n[nH]2)C1 [Compound 26] | 0.92 | 0.27 | 388 |  |
| CC(C)NC(=O)O[C@@H]1CC[C@H](c2cc(Nc3ccc(N4CCN(C)CC4)cn3)n[nH]2)C1 [Compound 49] | 10.7 |  | 1300 | IC50 (CDK1/Cyclin B): 724 nM; Papp A→B at 2 h, 2 µM [1, 8]: 2.4 ×10⁻⁶ cm/s; Papp B→A at 2 h, 2 µM [1, 8]: 12.2 ×10⁻⁶ cm/s; efflux ratio at 2 h, 2 µM [1, 8]: 5.09 |
| CC1(C)CCN1C(=O)O[C@@H]1CC[C@H](c2cc(NC(=O)Cc3cccc(P(C)(C)=O)c3)n[nH]2)C1 [Compound 23] | 5.01 | 1850 |  |  |
| CC(C)NC(=O)O[C@@H]1CC[C@H](c2cc(Nc3ccc(N4CCN(CC(F)(F)F)CC4)cc3)n[nH]2)C1 [Compound 128] |  |  | 9950 | IC50 (CDK2/Cyclin E1): 12.8 nM |
| COCc1cc(C(=O)Nc2cc([C@H]3C[C@@H](F)[C@@H](OC(=O)NC(C)C)C3)[nH]n2)n(C)n1 [Compound 11] | 1.07 |  | 1610 | Remaining amount% at 60 min Human [2]: 105%; Remaining amount% at 60 min Dog [4]: 99%; Remaining amount% at 60 min Rat [3]: 104% |
| CC1(C)CCN1C(=O)O[C@@H]1CO[C@H](c2cc(NC(=O)Cc3cccc(P(C)(C)=O)c3)n[nH]2)C1 [Compound 30] | 8.22 |  |  |  |
| COCc1cc(C(=O)Nc2nnc([C@H]3CC[C@@H](OC(=O)NC(C)C)C3)s2)n(C)n1 [Compound 42] | > 1000 |  |  |  |
| CC(C)NC(=O)O[C@@H]1CC[C@H](c2cc(NC(=O)c3cc(CS(=O)(=O)C4CC4)nn3C)n[nH]2)C1 [Compound 13] | 3.37 |  | 2150 | IC50 (CDK1/Cyclin B): 48.2 nM; Remaining amount% at 60 min Human [2]: 80.0%; Remaining amount% at 60 min Rat [3]: 71.2% |
